Measured values published in the NIST ThermoML archive (doi:10.1021/je900596d).

Details: 353.12 K, Fluid (supercritical or subcritical phases), Vibrating tube method

FC(F)=C(F)C(F)(F)F [hexafluoropropene]
Details | mass density [kg/m3]
251.4 kPa | 13.222
262.8 kPa | 13.844
272.6 kPa | 14.383
303.9 kPa | 16.11
313 kPa | 16.554
322.1 kPa | 17.107
330.9 kPa | 17.558
340 kPa | 18.069
349.1 kPa | 18.584
358.7 kPa | 19.177
369.1 kPa | 19.754
379.1 kPa | 20.272
389.1 kPa | 20.831
398.8 kPa | 21.42
402.9 kPa | 21.597
407.6 kPa | 21.905
413.1 kPa | 22.161
418.2 kPa | 22.524
427.2 kPa | 23.019
456.1 kPa | 24.636
465.8 kPa | 25.243
475.9 kPa | 25.82
485.6 kPa | 26.38
494.8 kPa | 26.85
499.7 kPa | 27.22
504.9 kPa | 27.48
509.8 kPa | 27.78
514.2 kPa | 28
524.1 kPa | 28.5
533.5 kPa | 29.18
538.4 kPa | 29.45
545.1 kPa | 30
567 kPa | 31.29
590.2 kPa | 32.66
613.6 kPa | 34.14
636.8 kPa | 35.5
660.1 kPa | 36.92
683.4 kPa | 38.37
706.6 kPa | 39.74
729.7 kPa | 41.24
752.5 kPa | 42.62
775.3 kPa | 44.06
796.9 kPa | 45.46
816.7 kPa | 46.73
836 kPa | 47.99
854.6 kPa | 49.09
872.3 kPa | 50.27
890.1 kPa | 51.44
907.5 kPa | 52.57
924.8 kPa | 53.65
942.1 kPa | 54.86
975.7 kPa | 57.1
992.2 kPa | 58.29
1023.7 kPa | 60.42
1038.9 kPa | 61.48
1054.5 kPa | 62.56
1070 kPa | 63.66
1085.8 kPa | 64.72
1101.6 kPa | 65.79
1116.8 kPa | 66.89
1131.5 kPa | 67.98
1146.8 kPa | 69
1161.5 kPa | 70.08
1205.5 kPa | 73.34
1219.6 kPa | 74.41
1247.6 kPa | 76.44
1261.7 kPa | 77.55
1275.7 kPa | 78.61
1303.4 kPa | 80.62
1330.3 kPa | 82.8
1356.9 kPa | 84.86
1383.3 kPa | 86.96
1408.9 kPa | 88.93
1434.2 kPa | 91.01
1459.3 kPa | 93.02
1483.9 kPa | 95.18
1508 kPa | 97.12
1531.3 kPa | 99.1
1554.6 kPa | 101.06
1577.1 kPa | 102.97
1599.7 kPa | 105.06
1621.5 kPa | 106.97
1643.3 kPa | 108.91
1664 kPa | 110.78
1684.8 kPa | 112.72
1705.1 kPa | 114.65
1725.3 kPa | 116.53
1745.4 kPa | 118.38
1764.4 kPa | 120.27
1783 kPa | 122.06
1801.8 kPa | 123.93
1819.8 kPa | 125.68
1837.5 kPa | 127.52
1854.8 kPa | 129.26
1871.7 kPa | 131.01
1887.6 kPa | 132.69
1901.9 kPa | 134.3
1921.8 kPa | 136.34
1936 kPa | 137.88
1955.9 kPa | 140.04
1970.5 kPa | 141.59
1990.1 kPa | 143.83
2027.5 kPa | 148.08
2047 kPa | 150.4
2061 kPa | 152.1
2079.9 kPa | 154.31
2102.5 kPa | 157.14
2119.5 kPa | 159.22
2136.1 kPa | 161.36
2152.9 kPa | 163.58
2175.2 kPa | 166.51
2194.7 kPa | 169.1
2217.5 kPa | 172.27
2237.1 kPa | 175.05
2258.4 kPa | 178.08
2276.1 kPa | 180.72
2293.5 kPa | 183.23
2310.9 kPa | 185.85
2329.3 kPa | 188.76
2343.8 kPa | 191.1
2361 kPa | 193.93
2378.6 kPa | 196.85
2393.5 kPa | 199.32
2410.2 kPa | 202.31
2428.4 kPa | 205.51
2442.4 kPa | 208.12
2463 kPa | 211.98
2479.5 kPa | 215.15
2502.3 kPa | 219.78
2520.3 kPa | 223.6
2540.4 kPa | 228.04
2560 kPa | 232.39
2575.6 kPa | 236.13
